Patent US10611740B2, “Aryl dihydro-2H-benzo[b][1,4]oxazine sulfonamide and related compounds for use as agonists of RORγ and the treatment of disease” (Lycera Corporation, priority 2015, dated 2020)

Columns and labels:
RORγ-LBD = biological target: T1, RORγ-LBD (Homo sapiens, UniProt P51449); experiment: RORγ-Ligand Binding Domain (LBD) TR-FRET Assay; format: biochemical;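 for TR-FRET Assay Max Response: 665/615 nm ratio relative to signal without ursolic acid or compound set at 100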
T1 construct: made in house; host or cells: SF9 cells (baculovirus)
T1 sequence (P51449 269-508 limits assumed): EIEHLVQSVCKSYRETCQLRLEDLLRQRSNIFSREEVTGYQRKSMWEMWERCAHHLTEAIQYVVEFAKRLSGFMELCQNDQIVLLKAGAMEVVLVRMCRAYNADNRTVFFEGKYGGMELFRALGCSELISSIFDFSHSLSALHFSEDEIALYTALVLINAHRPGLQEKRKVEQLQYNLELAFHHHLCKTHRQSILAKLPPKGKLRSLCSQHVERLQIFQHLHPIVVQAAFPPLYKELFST
Summary of the method: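 TR-FRET read-out using a biotin-tagged SRC1 coactivator LXXLL peptide (200 nM final), with the antagonist ursolic acid present at 2 μM final. Receptor is His-tagged LBD expressed in SF9 cells, ~3 nM final in pH 7.0 Tris/KCl/EDTA/DTT/BSA buffer; compounds in 1% DMSO final.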

Gal4-RORγ-LBD = biological target: T2, Gal4-RORγ-LBD (Homo sapiens, UniProt P51449); experiment: Gal4-RORγ Luciferase Reporter Assay in HEK-293T Cells; format: cell-based; conditions: HEK-293 cells
T2 construct: expressed in transfected cells; host or cells: HEK-293 cells (pcDNA3.1neo plasmid)
T2 sequence (P51449 269-508 limits assumed): T1 sequence (P51449 269-508 limits assumed)
Summary of the method: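 Luminescence read-out (One-Glo, 10 min RT) after overnight compound exposure at 37 °C in HEK-293 cells carrying Gal4-RORγ-LBD plus a Gal4-luciferase reporter, in the presence of 2 μM ursolic acid. Max Response is the upper plateau from a 4-parameter logistic fit, normalized to untreated signal = 100.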

[1] = luciferase reporter, with 2 μM ursolic acid

SMILES | EC50 (RORγ-LBD) | TR-FRET Assay Max Response (RORγ-LBD) | EC50 (Gal4-RORγ-LBD; [1]) | Gal4-RORγ Assay Max Response (Gal4-RORγ-LBD; [1]) | EC50 (Gal4-RORγ-LBD; 2 μM ursolic acid) | Gal4-RORγ Assay Max Response (Gal4-RORγ-LBD; 2 μM ursolic acid)
Cc1cc(F)cc(-c2ccc3c(c2)N(S(=O)(=O)c2cccc(C(F)(F)F)c2)C[C@H](CCC(=O)O)O3)c1 [Compound 2BN, (S)-3-(6-(3-fluoro-5-methyl-phenyl)-4-((3-(trifluoromethyl)-phenyl)sulfonyl)-3,4-dihydro-2H-benzo[b][1,4]oxazin-2-yl)propanoic acid] | < 500 nM | *** (The symbol “***” indicates a value in the range of greater than 150 to 200) | < 500 nM | ** (The symbol “**” indicates a value in the range of greater than 90 to 150) | – | –
Cc1noc(C)c1-c1ccc2c(c1)N(S(=O)(=O)c1cccc(C(F)(F)F)c1)C[C@H](CCC(=O)O)O2 [Compound 2BO, (S)-3-(6-(3,5-dimethylisoxazol-4-yl)-4-((3-(trifluoromethyl)-phenyl)sulfonyl)-3,4-dihydro-2H-benzo[b][1,4]oxazin-2-yl)propanoic acid] | > 10000 nM | – | > 10000 nM | – | – | –
Cc1cccc(-c2ccc3c(c2)N(S(=O)(=O)c2cccc(C(F)(F)F)c2)C[C@H](CCC(=O)O)O3)c1C [Compound 2BR, (S)-3-(6-(2,3-dimethylphenyl)-4-((3-(trifluoromethyl)phenyl)-sulfonyl)-3,4-dihydro-2H-benzo[b][1,4]oxazin-2-yl)propanoic acid] | < 500 nM | *** (The symbol “***” indicates a value in the range of greater than 150 to 200) | – | – | < 500 nM | ** (The symbol “**” indicates a value in the range of greater than 90 to 150)
O=C(O)CC[C@H]1CN(S(=O)(=O)c2cccc(C(F)(F)F)c2)c2cc(-c3cc(Cl)ccc3F)ccc2O1 [Compound 2C, (S)-3-(6-(5-chloro-2-fluorophenyl)-4-((3-(trifluoromethyl)phenyl)-sulfonyl)-3,4-dihydro-2H-benzo[b][1,4]oxazin-2-yl)propanoic acid] | < 500 nM | *** (The symbol “***” indicates a value in the range of greater than 150 to 200) | < 500 nM | ** (The symbol “**” indicates a value in the range of greater than 90 to 150) | – | –
O=C(O)CC[C@H]1CN(S(=O)(=O)c2cccc(C(F)(F)F)c2)c2cc(-c3ccc(Cl)c(Cl)c3)ccc2O1 [Compound 2E, (S)-3-(6-(3,4-dichlorophenyl)-4-((3-(trifluoromethyl)phenyl)-sulfonyl)-3,4-dihydro-2H-benzo[b][1,4]oxazin-2-yl)propanoic acid] | < 500 nM | *** (The symbol “***” indicates a value in the range of greater than 150 to 200) | < 500 nM | ** (The symbol “**” indicates a value in the range of greater than 90 to 150) | – | –
O=C(O)CC[C@H]1CN(S(=O)(=O)c2cccc(C(F)(F)F)c2)c2cc(-c3cccc(C(F)(F)F)c3)ccc2O1 [Compound 2G, (S)-3-(6-(3-(trifluoromethyl)phenyl)-4-((3-(trifluoromethyl)phenyl)-sulfonyl)-3,4-dihydro-2H-benzo[b][1,4]oxazin-2-yl)propanoic acid] | < 500 nM | *** (The symbol “***” indicates a value in the range of greater than 150 to 200) | < 500 nM | *** (The symbol “***” indicates a value in the range of greater than 150 to 200) | – | –
O=C(O)CC[C@H]1CN(S(=O)(=O)c2cccc(C(F)(F)F)c2)c2cc(-c3cc(F)cc(Cl)c3)ccc2O1 [Compound 2I, (S)-3-(6-(3-chloro-5-fluorophenyl)-4-((3-(trifluoro-methyl)phenyl)sulfonyl)-3,4-dihydro-2H-benzo[b][1,4]-oxazin-2-yl)propanoic acid] | < 500 nM | *** (The symbol “***” indicates a value in the range of greater than 150 to 200) | < 500 nM | *** (The symbol “***” indicates a value in the range of greater than 150 to 200) | – | –
O=C(O)CC[C@H]1CN(S(=O)(=O)c2cccc(C(F)(F)F)c2)c2cc(-c3ccc(F)c(Cl)c3)ccc2O1 [Compound 2J, (S)-3-(6-(3-chloro-4-fluorophenyl)-4-((3-(trifluoromethyl)phenyl)-sulfonyl)-3,4-dihydro-2H-benzo[b][1,4]oxazin-2-yl)propanoic acid] | < 500 nM | ** (The symbol “**” indicates a value in the range of greater than 90 to 150) | 500 to 5000 nM | * (The symbol “*” indicates a value in the range of 25 to 90) | – | –
O=C(O)CC[C@H]1CN(S(=O)(=O)c2cccc(C(F)(F)F)c2)c2cc(-c3cc(Cl)cc(Cl)c3)ccc2O1 [Compound 2L, (S)-3-(6-(3,5-dichlorophenyl)-4-((3-(trifluoromethyl)phenyl)-sulfonyl)-3,4-dihydro-2H-benzo[b][1,4]oxazin-2-yl)propanoic acid] | < 500 nM | *** (The symbol “***” indicates a value in the range of greater than 150 to 200) | < 500 nM | *** (The symbol “***” indicates a value in the range of greater than 150 to 200) | – | –
O=C(O)CC[C@H]1CN(S(=O)(=O)c2cccc(C(F)(F)F)c2)c2cc(-c3cccc(C(F)(F)F)c3F)ccc2O1 [Compound 2N, (S)-3-(6-(2-fluoro-3-(trifluoromethyl)phenyl)-4-((3-(trifluoromethyl)phenyl)-sulfonyl)-3,4-dihydro-2H-benzo[b][1,4]oxazin-2-yl)propanoic acid] | < 500 nM | *** (The symbol “***” indicates a value in the range of greater than 150 to 200) | < 500 nM | *** (The symbol “***” indicates a value in the range of greater than 150 to 200) | – | –
O=C(O)CC[C@H]1CN(S(=O)(=O)c2cccc(C(F)(F)F)c2)c2cc(-c3cc(C(F)(F)F)ccc3F)ccc2O1 [Compound 2O, (S)-3-(6-(2-fluoro-5-(trifluoromethyl)phenyl)-4-((3-(trifluoromethyl)phenyl)-sulfonyl)-3,4-dihydro-2H-benzo[b][1,4]oxazin-2-yl)propanoic acid] | < 500 nM | *** (The symbol “***” indicates a value in the range of greater than 150 to 200) | < 500 nM | *** (The symbol “***” indicates a value in the range of greater than 150 to 200) | – | –
Cc1ccccc1-c1ccc2c(c1)N(S(=O)(=O)c1cccc(C(F)(F)F)c1)C[C@H](CCC(=O)O)O2 [Compound 2P, (S)-3-(6-(o-tolyl)-4-((3-(trifluoromethyl)phenyl)-sulfonyl)-3,4-dihydro-2H-benzo[b][1,4]oxazin-2-yl)propanoic acid] | < 500 nM | *** (The symbol “***” indicates a value in the range of greater than 150 to 200) | < 500 nM | *** (The symbol “***” indicates a value in the range of greater than 150 to 200) | – | –
Cc1cccc(-c2ccc3c(c2)N(S(=O)(=O)c2cccc(C(F)(F)F)c2)C[C@H](CCC(=O)O)O3)c1 [Compound 2Q, (S)-3-(6-(m-tolyl)-4-((3-(trifluoromethyl)phenyl)-sulfonyl)-3,4-dihydro-2H-benzo[b][1,4]oxazin-2-yl)propanoic acid] | < 500 nM | *** (The symbol “***” indicates a value in the range of greater than 150 to 200) | < 500 nM | *** (The symbol “***” indicates a value in the range of greater than 150 to 200) | – | –
O=C(O)CC[C@H]1CN(S(=O)(=O)c2cccc(C(F)(F)F)c2)c2cc(-c3cccc(Cl)c3F)ccc2O1 [Compound 2R, (S)-3-(6-(3-chloro-2-fluorophenyl)-4-((3-(trifluoromethyl)phenyl)-sulfonyl)-3,4-dihydro-2H-benzo[b][1,4]oxazin-2-yl)propanoic acid] | < 500 nM | **** (The symbol “****” indicates a value greater than 200) | < 500 nM | *** (The symbol “***” indicates a value in the range of greater than 150 to 200) | – | –
COc1ccc(Cl)cc1-c1ccc2c(c1)N(S(=O)(=O)c1cccc(C(F)(F)F)c1)C[C@H](CCC(=O)O)O2 [Compound 2S, (S)-3-(6-(5-chloro-2-methoxyphenyl)-4-((3-(trifluoromethyl)phenyl)-sulfonyl)-3,4-dihydro-2H-benzo[b][1,4]oxazin-2-yl)propanoic acid] | < 500 nM | **** (The symbol “****” indicates a value greater than 200) | < 500 nM | ** (The symbol “**” indicates a value in the range of greater than 90 to 150) | – | –
COc1ccccc1-c1ccc2c(c1)N(S(=O)(=O)c1cccc(C(F)(F)F)c1)C[C@H](CCC(=O)O)O2 [Compound 2T, (S)-3-(6-(2-methoxyphenyl)-4-((3-(trifluoromethyl)phenyl)-sulfonyl)-3,4-dihydro-2H-benzo[b][1,4]oxazin-2-yl)propanoic acid] | < 500 nM | **** (The symbol “****” indicates a value greater than 200) | < 500 nM | *** (The symbol “***” indicates a value in the range of greater than 150 to 200) | – | –
